Measurements taken from patent US10064907B2, “Process to improve feed efficiency and carcass characteristics of animals” (Oligo Basics Agroindustrial LTDA., priority 2012, dated 2018).
Marks after values point to notes of the source that are not given here.

Tests used:
[1] = rats, supplemented vs non-supplemented animals; cited from earlier work
[2] = Carcass characteristics of steers, Composition versus Monensin (Example 3); format: in vivo; details: Monensin 223 mg/head/day, Composition 500 ppm in total feed, treatments differ P < 0.05
Method: The two groups were treated with Monensin (223 mg/head/day) and the Composition (500 ppm in total feed). Monensin is the antibiotic used in the industry as a standard to affect microbial populations in the rumen of the animals. The change in microbial populations in the rumen shifts the fermentation end products, which results in an improvement in the energy efficiency of the animal. By comparing the Composition to the industry standard, the effects due to changes in microbial populations can be deleted. Therefore, if differences were found between Monensin treated animals and the Composition treated animals, those differences would not arise from the antimicrobial effects, as both products inhibit the same type of bacteria (gram positive). The Composition was 40% cashew nut shell liquid, 12% castor oil and 48% expanded vermiculite. Dressing percent is the percentage of the carcass in relation to the total weight of the animal. Carcass quality grade goes from 1 to 9 to indicate, in increasing order, the amount of intramuscular fat. Meats with higher levels of intramuscular fat are more tender and, therefore, more expensive. Also, as the amount of energy found per unit of fat is twice as much as the amount of energy found per unit of carbohydrate and […], meats with more intramuscular fat are more energy dense than […]. […]

CCCCCCCCCCCCCCCc1cccc(O)c1C(=O)O [anacardic acid]
effects on feed efficiency [1]: no differences

CC[C@@]1([C@@H]2O[C@@H]([C@H]3O[C@@](O)(CO)[C@H](C)C[C@@H]3C)C[C@@H]2C)CC[C@H]([C@]2(C)CC[C@]3(C[C@H](O)[C@@H](C)[C@@H]([C@@H](C)[C@@H](OC)[C@H](C)C(=O)O)O3)O2)O1 [Monensin]
Carcass quality grade ([2]; grade from 1 to 9, increasing intramuscular fat, steers fed from 322 kg to 617 kg): 3.18^a
Dressing percent (percentage of the carcass in relation to the total weight of the animal) ([2]; steers fed from 322 kg to 617 kg live weight): 60^a percent
